Measured values reported in patent US9611256B2, “Alkyne-, azide- and triazole-containing flavonoids as modulators for multidrug resistance in cancers” (The Hong Kong Polytechnic University, priority 2012, dated 2017).
Read-outs that look alike come from different tables or passages of the source.

Tests used:
MRP1 [1] = target: T1, MRP1 (Homo sapiens, UniProt P33527); test: Reversal of MRP1-mediated vincristine resistance in 2008/MRP1 cells (cell proliferation assay); details: (IC50 towards L929 or Raw264.7)/(EC50 for reversing drug resistance)
[2] = test system: P-gp, MRP1 and BCRP transporters; test: Selectivity for ABC transporters, determined from % of reversion (Tables 1 and 2); type: cell-based, human; details: determined from % of reversion in Table 1 (>80% strongly, 79-50% moderately selective)
Method in brief: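 Compounds are grouped as acting on one, two or all three of P-gp, MRP1 and BCRP. The basis is percent reversion: 79-50% means moderate selectivity, above 80% strong selectivity.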

MRP1 [3] = target: T1, MRP1; test: cell-based
BCRP [4] = target: T2, BCRP (Homo sapiens, UniProt Q9UNQ0); test: cell-based
T2 sequence (Q9UNQ0 1-655): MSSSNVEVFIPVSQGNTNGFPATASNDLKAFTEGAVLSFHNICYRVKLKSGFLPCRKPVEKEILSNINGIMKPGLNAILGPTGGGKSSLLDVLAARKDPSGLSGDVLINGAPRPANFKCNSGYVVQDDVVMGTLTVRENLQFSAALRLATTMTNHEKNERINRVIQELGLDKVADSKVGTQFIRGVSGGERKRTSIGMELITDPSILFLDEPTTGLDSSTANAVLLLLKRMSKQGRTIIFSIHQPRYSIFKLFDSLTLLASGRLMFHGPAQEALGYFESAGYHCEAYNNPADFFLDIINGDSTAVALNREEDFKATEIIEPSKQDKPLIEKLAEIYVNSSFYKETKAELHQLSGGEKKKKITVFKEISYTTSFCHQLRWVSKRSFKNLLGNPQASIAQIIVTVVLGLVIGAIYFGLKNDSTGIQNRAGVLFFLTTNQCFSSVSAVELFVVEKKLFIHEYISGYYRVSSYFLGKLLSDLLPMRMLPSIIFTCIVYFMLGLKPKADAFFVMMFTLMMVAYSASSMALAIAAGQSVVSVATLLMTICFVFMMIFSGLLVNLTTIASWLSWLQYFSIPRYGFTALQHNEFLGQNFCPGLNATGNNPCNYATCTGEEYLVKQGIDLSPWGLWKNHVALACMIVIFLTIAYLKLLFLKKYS

in vitro = details: mouse
MRP1 [5] = target: T1, MRP1; test: Reversal of MRP1-mediated DOX resistance in 2008/MRP1 cells (cell proliferation assay); details: (IC50 towards L929 or Raw264.7)/(EC50 for reversing drug resistance)
MRP1 [6] = target: T1, MRP1; test: cell-based; remark: listed apart in the source
BCRP [7] = target: T2, BCRP; test: Reversal of BCRP-mediated topotecan resistance in MCF7-MX100 cells (cell proliferation assay); details: (IC50 towards L929 or Raw264.7)/(EC50 for reversing drug resistance)
2008/MRP1 = test: Cell proliferation assay, 2008/MRP1
P-gp [8] = target: T3, P-gp (Homo sapiens, UniProt P08183); test: cell-based
P-gp [9] = target: T3, P-gp; details: mouse (L929 or Raw264.7) and human (LCC6MDR), 5 days

T3 sequence (P08183 whole entry): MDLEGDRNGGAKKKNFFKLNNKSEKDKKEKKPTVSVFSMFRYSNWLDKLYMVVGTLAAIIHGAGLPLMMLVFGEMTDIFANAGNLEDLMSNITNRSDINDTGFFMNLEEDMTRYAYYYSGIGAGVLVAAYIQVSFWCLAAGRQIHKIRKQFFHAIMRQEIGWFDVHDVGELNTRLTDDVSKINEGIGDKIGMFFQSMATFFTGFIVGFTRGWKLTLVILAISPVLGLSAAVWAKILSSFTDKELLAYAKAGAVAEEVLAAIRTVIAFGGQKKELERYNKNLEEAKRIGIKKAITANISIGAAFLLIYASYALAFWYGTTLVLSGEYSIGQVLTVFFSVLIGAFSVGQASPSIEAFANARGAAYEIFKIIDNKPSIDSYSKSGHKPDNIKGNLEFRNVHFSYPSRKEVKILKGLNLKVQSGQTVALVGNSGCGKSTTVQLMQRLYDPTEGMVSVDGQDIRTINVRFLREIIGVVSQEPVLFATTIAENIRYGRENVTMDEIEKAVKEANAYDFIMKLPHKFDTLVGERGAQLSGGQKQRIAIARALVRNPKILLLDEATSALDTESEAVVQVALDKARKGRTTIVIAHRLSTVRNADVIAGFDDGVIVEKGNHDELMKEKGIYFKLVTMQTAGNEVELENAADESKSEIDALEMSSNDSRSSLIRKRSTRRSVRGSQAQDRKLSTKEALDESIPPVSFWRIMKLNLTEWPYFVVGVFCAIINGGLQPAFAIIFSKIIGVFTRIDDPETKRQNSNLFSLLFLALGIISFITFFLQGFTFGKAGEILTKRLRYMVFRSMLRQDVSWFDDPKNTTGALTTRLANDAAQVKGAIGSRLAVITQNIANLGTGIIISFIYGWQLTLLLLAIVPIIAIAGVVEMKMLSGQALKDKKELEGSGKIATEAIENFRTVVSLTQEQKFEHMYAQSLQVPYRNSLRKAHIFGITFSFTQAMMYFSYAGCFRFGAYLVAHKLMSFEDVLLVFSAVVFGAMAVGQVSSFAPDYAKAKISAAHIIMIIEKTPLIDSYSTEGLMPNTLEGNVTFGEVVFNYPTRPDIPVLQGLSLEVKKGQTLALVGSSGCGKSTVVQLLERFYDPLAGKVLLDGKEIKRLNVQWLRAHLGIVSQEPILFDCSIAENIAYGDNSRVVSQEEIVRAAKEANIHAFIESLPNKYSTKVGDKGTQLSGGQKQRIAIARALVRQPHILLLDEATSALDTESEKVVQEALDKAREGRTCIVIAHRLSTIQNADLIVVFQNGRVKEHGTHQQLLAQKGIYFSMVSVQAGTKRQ
T1 sequence (P33527 whole entry): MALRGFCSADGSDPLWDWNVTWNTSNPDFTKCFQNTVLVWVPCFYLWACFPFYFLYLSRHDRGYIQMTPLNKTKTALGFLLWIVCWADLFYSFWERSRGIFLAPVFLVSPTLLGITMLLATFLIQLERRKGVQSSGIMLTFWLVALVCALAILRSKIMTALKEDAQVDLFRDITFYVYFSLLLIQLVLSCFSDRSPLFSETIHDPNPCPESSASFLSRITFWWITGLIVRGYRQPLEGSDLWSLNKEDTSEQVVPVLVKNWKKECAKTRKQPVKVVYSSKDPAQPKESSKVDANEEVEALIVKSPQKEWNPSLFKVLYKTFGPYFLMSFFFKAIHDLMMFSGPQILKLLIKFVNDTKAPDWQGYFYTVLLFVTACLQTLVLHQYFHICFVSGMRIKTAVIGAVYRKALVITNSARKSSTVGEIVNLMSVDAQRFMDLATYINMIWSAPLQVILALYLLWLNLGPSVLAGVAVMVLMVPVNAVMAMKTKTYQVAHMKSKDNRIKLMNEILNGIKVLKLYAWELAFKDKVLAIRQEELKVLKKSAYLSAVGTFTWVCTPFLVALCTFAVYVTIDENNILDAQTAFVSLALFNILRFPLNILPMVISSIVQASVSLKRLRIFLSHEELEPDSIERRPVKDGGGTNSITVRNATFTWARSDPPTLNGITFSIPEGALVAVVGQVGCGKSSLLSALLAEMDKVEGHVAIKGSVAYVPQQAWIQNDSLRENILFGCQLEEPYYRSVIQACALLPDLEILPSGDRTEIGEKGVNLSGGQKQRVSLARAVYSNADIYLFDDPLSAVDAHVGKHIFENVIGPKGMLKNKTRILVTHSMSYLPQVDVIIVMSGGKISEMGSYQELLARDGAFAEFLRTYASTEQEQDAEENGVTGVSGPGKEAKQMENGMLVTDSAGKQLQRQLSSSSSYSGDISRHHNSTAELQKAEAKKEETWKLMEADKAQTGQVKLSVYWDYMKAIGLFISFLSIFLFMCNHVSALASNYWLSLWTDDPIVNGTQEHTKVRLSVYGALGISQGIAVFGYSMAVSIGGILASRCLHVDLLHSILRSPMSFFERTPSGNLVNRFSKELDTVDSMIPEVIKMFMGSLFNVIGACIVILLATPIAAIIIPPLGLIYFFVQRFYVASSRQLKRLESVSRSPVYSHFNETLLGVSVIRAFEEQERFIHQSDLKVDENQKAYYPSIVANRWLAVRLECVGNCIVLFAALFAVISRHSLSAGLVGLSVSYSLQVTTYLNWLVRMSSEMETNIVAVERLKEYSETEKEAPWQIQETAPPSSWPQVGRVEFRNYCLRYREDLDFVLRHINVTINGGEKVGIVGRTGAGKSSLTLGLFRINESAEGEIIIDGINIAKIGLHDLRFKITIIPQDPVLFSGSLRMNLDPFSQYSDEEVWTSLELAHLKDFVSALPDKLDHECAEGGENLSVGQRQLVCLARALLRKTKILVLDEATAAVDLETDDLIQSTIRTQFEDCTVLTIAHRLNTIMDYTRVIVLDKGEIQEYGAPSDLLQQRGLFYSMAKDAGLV

Cc1ccc2oc(-c3ccc(OCCOCCOCCn4cc(CN(Cc5ccccc5)Cc5cn(CCOCCOCCOc6ccc(-c7cc(=O)c8cc(C)ccc8o7)cc6)nn5)nn4)cc3)cc(=O)c2c1 [Ac15Az3, 2,2′-((((((((4,4′-((Benzylazanediyl)bis(methylene))bis(1H-1,2,3-triazole-4,1-diyl))bis(ethane-2,1-diyl))bis(oxy))bis(ethane-2,1-diyl))bis(oxy))bis(ethane-2,1-diyl))bis(oxy))bis(4,1-phenylene))bis(6-methyl-4H-chromen-4-one)]
Vincristine resistance of 2008/MRP1 Therapeutic index (MRP1 [1]): >186.9 | Selectivity for ABC transporters (P-gp, MRP1, BCRP) [2]: MRP1- and BCRP-dual selectivity | EC50 (MRP1 [3]): 535 ± 62.6 nM | EC50 (BCRP [4]): 36 ± 4 nM | IC50 at 5 days (in vitro): > 100000 nM | DOX resistance of 2008/MRP1 Therapeutic index (MRP1 [5]): >210.5

O=c1cc(-c2ccc(OCCOCCOCCn3cc(CN(Cc4ccccc4)Cc4cn(CCOCCOCCOc5ccc(-c6cc(=O)c7ccccc7o6)cc5)nn4)nn3)cc2)oc2ccccc12 [Ac15Az2, 2,2′-((((((((4,4′-((Benzylazanediyl)bis(methylene))bis(1H-1,2,3-triazole-4,1-diyl))bis(ethane-2,1-diyl))bis(oxy))bis(ethane-2,1-diyl))bis(oxy))bis(ethane-2,1-diyl))bis(oxy))bis(4,1-phenylene))bis(4H-chromen-4-one)]
Vincristine resistance of 2008/MRP1 Therapeutic index (MRP1 [1]): >181.8 | Selectivity for ABC transporters (P-gp, MRP1, BCRP) [2]: mono-MRP1 selectivity | EC50 (MRP1 [6]): 530 ± 120 nM | EC50 (MRP1 [3]): 550 nM | IC50 at 5 days (in vitro): > 100000 nM | DOX resistance of 2008/MRP1 Therapeutic index (MRP1 [5]): >188.7

O=c1cc(-c2ccccc2)oc2cc(OCCCCc3cn(CCOCCOCCOc4ccc5c(=O)cc(-c6ccccc6)oc5c4)nn3)ccc12 [Ac12Az12, 7-(2-(2-(2-(4-(4-((4-Oxo-2-phenyl-4H-chromen-7-yl)oxy)butyl)-1H-1,2,3-triazol-1-yl)ethoxy)ethoxy)ethoxy)-2-phenyl-4H-chromen-4-one]
Vincristine resistance of 2008/MRP1 Therapeutic index (MRP1 [1]): >595.2 | Selectivity for ABC transporters (P-gp, MRP1, BCRP) [2]: MRP1- and BCRP-dual selectivity | EC50 (MRP1 [3]): 168 nM | EC50 (BCRP [4]): 34 nM | IC50 at 5 days (in vitro): > 100000 nM | DOX resistance of 2008/MRP1 Therapeutic index (MRP1 [5]): >740.7

O=c1cc(-c2ccccc2)oc2cc(OCCN(Cc3ccccc3)Cc3cn(CCOCCOc4ccc(-c5cc(=O)c6cc(F)ccc6o5)cc4)nn3)ccc12 [Ac16Az7, 7-(2-(Benzyl((1-(2-(2-(4-(6-fluoro-4-oxo-4H-chromen-2-yl)phenoxy)ethoxy)ethyl)-1H-1,2,3-triazol-4-yl)methyl)amino)ethoxy)-2-phenyl-4H-chromen-4-one]
EC50 (MRP1 [6]): 123 ± 13 nM | IC50 at 5 days (in vitro): > 100000 nM

COCOc1cc(O)c2c(=O)cc(-c3ccc(OCCCc4cn(CCOCCOc5ccc(-c6cc(=O)c7ccccc7o6)cc5)nn4)cc3)oc2c1 [Ac4(5OH)Az1, 5-Hydroxy-7-(methoxymethoxy)-2-(4-(3-(1-(2-(2-(4-(4-oxo-4H-chromen-2-yl)phenoxy)ethoxy)ethyl)-1H-1,2,3-triazol-4-yl)propoxy)phenyl)-4H-chromen-4-one]
Selectivity for ABC transporters (P-gp, MRP1, BCRP) [2]: MRP1- and BCRP-dual selectivity | EC50 (MRP1 [6]): 110 ± 15 nM | Topotecan resistance of MCF7-MX100 Therapeutic index (BCRP [7]): >1960.8 | IC50 at 5 days (in vitro): > 100000 nM | DOX resistance of 2008/MRP1 Therapeutic index (MRP1 [5]): >909.1

O=c1cc(-c2ccccc2)oc2cc(OCCCCc3cn(CCOCCOc4ccc5c(=O)cc(-c6ccccc6)oc5c4)nn3)ccc12 [Ac12Az11, 7-(2-(2-(4-(4-((4-Oxo-2-phenyl-4H-chromen-7-yl)oxy)butyl)-1H-1,2,3-triazol-1-yl)ethoxy)ethoxy)-2-phenyl-4H-chromen-4-one]
Vincristine resistance of 2008/MRP1 Therapeutic index (MRP1 [1]): >591.7 | Selectivity for ABC transporters (P-gp, MRP1, BCRP) [2]: MRP1- and BCRP-dual selectivity | EC50 (MRP1 [3]): 169 nM | EC50 (BCRP [4]): 30 nM | IC50 at 5 days (in vitro): > 100000 nM | DOX resistance of 2008/MRP1 Therapeutic index (MRP1 [5]): >877.2

CC[C@]1(O)C[C@H]2CN(CCc3c([nH]c4ccccc34)[C@@](C(=O)OC)(c3cc4c(cc3OC)N(C=O)[C@H]3[C@@](O)(C(=O)OC)[C@H](OC(C)=O)[C@]5(CC)C=CCN6CC[C@]43[C@@H]65)C2)C1 [vincristine]
IC50 (2008/MRP1; Homo sapiens, 2008/MRP1, read-out: IC50 of anticancer drug, 2008/MRP1): 123 nM | fold more resistance of 2008/MRP1 than parental 2008/P (2008/MRP1; without modulator): about 2.4 fold

O=c1cc(-c2ccccc2)oc2cc(OCCOCc3cn(CCOCCOc4ccc(-c5oc6ccccc6c(=O)c5OCc5ccccc5)cc4)nn3)ccc12 [Ac13Az10, 3-(Benzyloxy)-2-(4-(2-(2-(4-((2-((4-oxo-2-phenyl-4H-chromen-7-yl)oxy)ethoxy)methyl)-1H-1,2,3-triazol-1-yl)ethoxy)ethoxy)phenyl)-4H-chromen-4-one]
Selectivity for ABC transporters (P-gp, MRP1, BCRP) [2]: Pgp- and BCRP-dual selectivity | EC50 (P-gp [8]): 340 nM | Topotecan resistance of MCF7-MX100 Therapeutic index (BCRP [7]): >845.3 | IC50 at 5 days (in vitro): > 100000 nM | Paclitaxel resistance of LCC6MDR Therapeutic index (P-gp [9]): >294.1

Cc1ccc2oc(-c3ccc(OCCCCc4cn(CCOCCOc5ccc(-c6cc(=O)c7cc(F)ccc7o6)cc5)nn4)cc3)cc(=O)c2c1 [Ac5Az7, 6-Fluoro-2-(4-(2-(2-(4-(4-(4-(6-methyl-4-oxo-4H-chromen-2-yl)phenoxy)butyl)-1H-1,2,3-triazol-1-yl)ethoxy)ethoxy)phenyl)-4H-chromen-4-one]
EC50 (P-gp [8]): 157 nM | IC50 at 5 days (in vitro): > 100000 nM

O=c1cc(-c2ccc(OCCOCCn3cc(CCCCOc4ccc5c(=O)cc(-c6ccccc6)oc5c4)nn3)cc2)oc2ccccc12 [Ac12Az1, 7-(4-(1-(2-(2-(4-(4-Oxo-4H-chromen-2-yl)phenoxy)ethoxy)ethyl)-1H-1,2,3-triazol-4-yl)butoxy)-2-phenyl-4H-chromen-4-one]
Vincristine resistance of 2008/MRP1 Therapeutic index (MRP1 [1]): >1190.5 | Selectivity for ABC transporters (P-gp, MRP1, BCRP) [2]: MRP1- and BCRP-dual selectivity | EC50 (MRP1 [3]): 84 ± 11 nM | IC50 at 5 days (in vitro): > 100000 nM

Cc1ccc2oc(-c3ccc(OCCCCc4cn(CCOCCOc5ccc(-c6cc(=O)c7ccccc7o6)cc5)nn4)cc3)cc(=O)c2c1 [Ac5Az1, 6-Methyl-2-(4-(4-(1-(2-(2-(4-(4-oxo-4H-chromen-2-yl)phenoxy)ethoxy)ethyl)-1H-1,2,3-triazol-4-yl)butoxy)phenyl)-4H-chromen-4-one]
EC50 (MRP1 [6]): 250 nM | IC50 at 5 days (in vitro): > 57000 nM

O=c1cc(-c2ccccc2)oc2cc(OCCCCc3cn(CCOCCOc4ccc(-c5oc6ccccc6c(=O)c5OCc5ccccc5)cc4)nn3)ccc12 [Ac12Az10, 3-(Benzyloxy)-2-(4-(2-(2-(4-(4-((4-oxo-2-phenyl-4H-chromen-7-yl)oxy)butyl)-1H-1,2,3-triazol-1-yl)ethoxy)ethoxy)phenyl)-4H-chromen-4-one]
Selectivity for ABC transporters (P-gp, MRP1, BCRP) [2]: Pgp- and BCRP-dual selectivity | EC50 (P-gp [8]): 330 nM | Topotecan resistance of MCF7-MX100 Therapeutic index (BCRP [7]): >2924.0 | IC50 at 5 days (in vitro): > 100000 nM | Paclitaxel resistance of LCC6MDR Therapeutic index (P-gp [9]): >303.0

O=c1cc(-c2ccccc2)oc2cc(OCCCCc3cn(CCOCCOc4ccc(-c5cc(=O)c6cc(F)ccc6o5)cc4)nn3)ccc12 [Ac12Az7, 6-Fluoro-2-(4-(2-(2-(4-(4-((4-oxo-2-phenyl-4H-chromen-7-yl)oxy)butyl)-1H-1,2,3-triazol-1-yl)ethoxy)ethoxy)phenyl)-4H-chromen-4-one]
Vincristine resistance of 2008/MRP1 Therapeutic index (MRP1 [1]): >1071.8 | Selectivity for ABC transporters (P-gp, MRP1, BCRP) [2]: MRP1- and BCRP-dual selectivity | EC50 (MRP1 [3]): 93.3 ± 20.5 nM | IC50 at 5 days (in vitro): > 100000 nM | DOX resistance of 2008/MRP1 Therapeutic index (MRP1 [5]): >580.4

Cc1ccc2oc(-c3ccc(OCCCCc4cn(CCOCCOc5ccc6c(=O)cc(-c7ccccc7)oc6c5)nn4)cc3)cc(=O)c2c1 [Ac5Az11, 6-Methyl-2-(4-(4-(1-(2-(2-((4-oxo-2-phenyl-4H-chromen-7-yl)oxy)ethoxy)ethyl)-1H-1,2,3-triazol-4-yl)butoxy)phenyl)-4H-chromen-4-one]
EC50 (P-gp [8]): 160 ± 21 nM | EC50 (MRP1 [3]): 135 ± 10 nM | IC50 at 5 days (in vitro): > 100000 nM

O=c1cc(-c2ccccc2)oc2cc(OCCN(Cc3ccccc3)Cc3cn(CCOc4ccc5c(=O)cc(-c6ccccc6)oc5c4)nn3)ccc12 [Ac16Az13, 7-(2-(Benzyl((1-(2-((4-oxo-2-phenyl-4H-chromen-7-yl)oxy)ethyl)-1H-1,2,3-triazol-4-yl)methyl)amino)ethoxy)-2-phenyl-4H-chromen-4-one]
EC50 (MRP1 [6]): 590 nM | IC50 at 5 days (in vitro): > 100000 nM | DOX resistance of 2008/MRP1 Therapeutic index (MRP1 [5]): >169.5
